# From US12303505B2, “Tumor-treating pharmaceutical composition” (Eisai R&D Management Co., Ltd., priority 2017, dated 2025)
# Structures can show the parent of a compound that is named as a salt.
# What was measured:
# Assay type in all cases: in vivo
# [1] = system: Human breast cancer MDA-MB-231 cells; test: Antitumor effect in human breast cancer MDA-MB-231 transplantation model, nude mice
# Protocol: Human breast cancer MDA-MB-231 cells (ATCC) were cultured by using RPMI1640 medium (Sigma-Aldrich Co. LLC) containing 10% FBS in a 5% CO2 incubator under conditions of 37° C. When the cells became an approximately 80% confluent state, the cells were recovered by using trypsin-EDTA. A suspension was prepared by adding Hank's balanced salt solution containing 50% Matrigel to the cells so as to be 10.0×10^7 cells/mL. 0.1 mL of the obtained cell suspension was subcutaneously transplanted to the sides of the bodies of five nude mice (CAnN.Cg-Foxn1^nu/CrlCrlj, Charles River Laboratories Japan, Inc.) each of a control group, an E7386 25 mg/kg alone administration group, a lenvatinib mesylate 10 mg/kg alone administration group, and a combined administration group of 25 mg/kg E7386 and 10 mg/kg lenvatinib mesylate. From 6 days after the transplantation, E7386 (25 mg/kg, b.d.s., 10 days, oral administration) and lenvatinib mesylate (10 mg/kg, q.d., 10 days, oral administration) were administered alone or in combination to the alone administration group or the combined administration group. For the administration, E7386 was dissolved in 0.1 mol/L hydrochloric acid, and lenvatinib mesylate was dissolved in 3 mmol/L hydrochloric acid. Any drug was not administered to the control group.
# When the start day of administration was defined as day 1, the major axis and minor axis of tumor developed in each mouse were then measured at day 4, day 7, and day 10 by using Digimatic Caliper (Mitutoyo Corp.).
# (§1) The tumor volume and the relative tumor volume (RTV) were calculated according to the following expressions. Tumor volume (mm^3)=Tumor major axis (mm)×Tumor minor axis^2 (mm^2)/2 Relative tumor volume (RTV)=Tumor volume at the measurement day/Tumor volume at the start day of administration
# [2] = system: Mouse breast cancer 4T1 cells; test: Antitumor effect in mouse breast cancer 4T1 orthotopic transplantation model
# Protocol: Mouse breast cancer 4T1 cells (ATCC) were cultured by using RPMI1640 medium (Sigma-Aldrich Co. LLC) containing 10% FBS in a 5% CO2 incubator under conditions of 37° C. When the cells became an approximately 80% confluent state, the cells were recovered by using trypsin-EDTA. A suspension was prepared by adding Hank's balanced salt solution so as to be 1.0×10^7 cells/mL. 0.1 mL of the obtained cell suspension was transplanted to the right third mammary gland fat pads of five mice ([…], Charles River Laboratories Japan, Inc.) each of a control group, an E7386 25 mg/kg alone administration group, a lenvatinib mesylate 10 mg/kg alone administration group, and a combined administration group of 25 mg/kg E7386 and 10 mg/kg lenvatinib mesylate. From 9 days after the transplantation, E7386 (25 mg/kg, b.d.s., 14 days, oral administration) and lenvatinib mesylate (10 mg/kg, q.d., 14 days, oral administration) were administered alone or in combination to the alone administration group or the combined administration group. For the administration, E7386 was dissolved in 0.1 mol/L hydrochloric acid, and lenvatinib mesylate was dissolved in 3 mmol/L hydrochloric acid. Any drug was not administered to the control group.
# When the start day of administration was defined as day 1, the major axis and minor axis of tumor developed in each mouse were then measured at day 3, day 6, day 9, and day 14 by using Digimatic Caliper (Mitutoyo Corp.).
# as §1
# [3] = system: transgenic mouse (MMTV-Wnt-1) spontaneous breast cancer; test: Antitumor effect in serial transplantation model of transgenic mouse (MMTV-Wnt-1) spontaneous breast cancer, C57BL/6J mice
# Protocol: Spontaneous breast cancer of a transgenic mouse (MMTV-Wnt-1, The Jackson Laboratory) caused to locally express Wnt-1 in mammary gland epithelial cells was collected, transplanted in a mouse of background strain (C57BL/6J, Charles River Laboratories Japan, Inc.) by using a trocar, and passaged. The tumor thus transplanted and passaged was excised when becoming approximately 1.5 g, and prepared into approximately 30 mg of a fragment, which was subcutaneously transplanted to the sides of the bodies of five mice (C57BL/6J) each of a control group, an E7386 12.5, 25 or 50 mg/kg alone administration group, a lenvatinib mesylate 10 mg/kg alone administration group, and a combined administration group of 12.5, 25 or 50 mg/kg E7386 and 10 mg/kg lenvatinib mesylate. After confirmation of engraftment of the tumor, E7386 (12.5, 25 or 50 mg/kg, b.d.s., 14 days, oral administration) and lenvatinib mesylate (10 mg/kg, q.d., 14 days, oral administration) were administered alone or in combination to the alone administration group or the combined administration group. For the administration, E7386 was dissolved in 0.1 mol/L hydrochloric acid, and lenvatinib mesylate was dissolved in 3 mmol/L hydrochloric acid. 0.1 mol/L hydrochloric acid (b.d.s., 14 days) was administered to the control group.
# When the start day of administration was defined as day 1, the major axis and minor axis of tumor developed in each mouse were then measured at day 4, day 8, day 11, and day 15 by using Digimatic Caliper (Mitutoyo Corp.).
# The tumor volume and the relative tumor volume (RTV) were calculated according to the following expressions. Tumor volume (mm^3)=Tumor major axis (mm)×Tumor minor axis^2 (mm)/2 Relative tumor volume (RTV)=Tumor volume at the measurement day/Tumor volume at the start day of administration
# [4] = Day 4, E7386 25 mg/kg b.d.s. oral alone
# [5] = Day 4, lenvatinib mesylate 10 mg/kg q.d. oral alone
smiles,measurement,setting,value
"C=CCN1CC(=O)N2[C@@H](Cc3ccc(O)cc3F)C(=O)N(Cc3cccc(N4CC(N5CCN(CC)CC5)C4)n3)C[C@@H]2N1C(=O)NCc1ccccc1 [E7386, (6S,9aS)—N-Benzyl-8-({6-[3-(4-ethylpiperazin-1-yl)azetidin-1-yl]pyridin-2-yl}methyl)-6-(2-fluoro-4-hydroxybenzyl)-4,7-dioxo-2-(prop-2-en-1-yl)hexahydro-2H-pyrazino[2,1-c][1,2,4]triazine-1(6H)-carboxamide]","Relative tumor volume (RTV), mean±SD",[1]; [4],2.34 ± 0.11
same,"Relative tumor volume (RTV), mean±SD","[1]; Day 7, E7386 25 mg/kg b.d.s. oral alone",3.19 ± 0.38
same,"Relative tumor volume (RTV), mean±SD","[1]; Day 10, E7386 25 mg/kg b.d.s. oral alone",4.49 ± 0.51
same,"Relative tumor volume (RTV), mean±SD","[2]; Day 3, E7386 25 mg/kg b.d.s. oral alone",1.59 ± 0.38
same,"Relative tumor volume (RTV), mean±SD","[2]; Day 6, E7386 25 mg/kg b.d.s. oral alone",1.75 ± 0.42
same,"Relative tumor volume (RTV), mean±SD","[2]; Day 9, E7386 25 mg/kg b.d.s. oral alone",2.17 ± 0.76
same,"Relative tumor volume (RTV), mean±SD","[2]; Day 14, E7386 25 mg/kg b.d.s. oral alone",2.32 ± 0.68
same,"Relative tumor volume (RTV), mean±SD","[3]; Day 4, E7386 12.5 mg/kg b.d.s. oral alone",1.34 ± 0.25
same,"Relative tumor volume (RTV), mean±SD",[3]; [4],1.26 ± 0.28
same,"Relative tumor volume (RTV), mean±SD","[3]; Day 4, E7386 50 mg/kg b.d.s. oral alone",0.93 ± 0.23
same,"Relative tumor volume (RTV), mean±SD","[3]; Day 8, E7386 12.5 mg/kg b.d.s. oral alone",1.20 ± 0.40
same,"Relative tumor volume (RTV), mean±SD","[3]; Day 8, E7386 25 mg/kg b.d.s. oral alone",1.56 ± 0.48
same,"Relative tumor volume (RTV), mean±SD","[3]; Day 8, E7386 50 mg/kg b.d.s. oral alone",1.05 ± 0.26
same,"Relative tumor volume (RTV), mean±SD","[3]; Day 11, E7386 12.5 mg/kg b.d.s. oral alone",1.70 ± 0.67
same,"Relative tumor volume (RTV), mean±SD","[3]; Day 11, E7386 25 mg/kg b.d.s. oral alone",2.40 ± 0.22
same,"Relative tumor volume (RTV), mean±SD","[3]; Day 11, E7386 50 mg/kg b.d.s. oral alone",1.34 ± 0.35
same,"Relative tumor volume (RTV), mean±SD","[3]; Day 15, E7386 12.5 mg/kg b.d.s. oral alone",2.12 ± 0.65
same,"Relative tumor volume (RTV), mean±SD","[3]; Day 15, E7386 25 mg/kg b.d.s. oral alone",3.69 ± 0.92
same,"Relative tumor volume (RTV), mean±SD","[3]; Day 15, E7386 50 mg/kg b.d.s. oral alone",1.59 ± 1.03
"COc1cc2nccc(Oc3ccc(NC(=O)NC4CC4)c(Cl)c3)c2cc1C(N)=O [Lenvatinib mesylate, 4-(3-chloro-4-(cyclopropylaminocarbonyl)aminophenoxy)-7-methoxy-6-quinolinecarboxamide, reference compound]","Relative tumor volume (RTV), mean±SD",[1]; [5],2.01 ± 0.60
same,"Relative tumor volume (RTV), mean±SD","[1]; Day 7, lenvatinib mesylate 10 mg/kg q.d. oral alone",2.41 ± 0.60
same,"Relative tumor volume (RTV), mean±SD","[1]; Day 10, lenvatinib mesylate 10 mg/kg q.d. oral alone",2.67 ± 1.23
same,"Relative tumor volume (RTV), mean±SD","[2]; Day 3, lenvatinib mesylate 10 mg/kg q.d. oral alone",1.36 ± 0.28
same,"Relative tumor volume (RTV), mean±SD","[2]; Day 6, lenvatinib mesylate 10 mg/kg q.d. oral alone",1.46 ± 0.28
same,"Relative tumor volume (RTV), mean±SD","[2]; Day 9, lenvatinib mesylate 10 mg/kg q.d. oral alone",1.75 ± 0.41
same,"Relative tumor volume (RTV), mean±SD","[2]; Day 14, lenvatinib mesylate 10 mg/kg q.d. oral alone",1.99 ± 0.26
same,"Relative tumor volume (RTV), mean±SD",[3]; [5],1.03 ± 0.13
same,"Relative tumor volume (RTV), mean±SD","[3]; Day 8, lenvatinib mesylate 10 mg/kg q.d. oral alone",0.87 ± 0.13
same,"Relative tumor volume (RTV), mean±SD","[3]; Day 11, lenvatinib mesylate 10 mg/kg q.d. oral alone",0.98 ± 0.21
same,"Relative tumor volume (RTV), mean±SD","[3]; Day 15, lenvatinib mesylate 10 mg/kg q.d. oral alone",1.05 ± 0.25
